Here are results for one compound from publication PMC4226669, “Anti-cancer potency of tasquinimod is enhanced via albumin-binding facilitating increased uptake in the tumor microenvironment” (Oncotarget, 2014).

One data set relates to HUVEC cells. Put plainly: In vitro cell metabolism in HUVEC. In kind it is in vitro ADME, human. Conditions: HUVEC, 1 μM, 48 hours. The method, then:
The nuclear uptake results are consistent with tasquinimod being the active drug for both direct therapeutic effects on cancer cells and indirect effects via suppression of the angiogenic response of host endothelial cells. To confirm these conclusions, the concentration of tasquinimod metabolites produced by endothelial cells was compared to the potency of these metabolites for inhibiting angiogenesis. When HUVEC cells are exposed to 1 μM of ^14C-labeled tasquinimod for 48 hours, < 15% of the drug is metabolized with 10% (i.e., 100 nM) being converted to the quinoline-O-demethylated compound and < 2% (i.e., < 20 nM) being converted to the quinoline-N-demethylated or carboxamide-N-demethylated compounds.
For in vitro studies, cells were incubated with 1μM ^14C-labeled tasquinimod for indicated time period and then the media and cells or cell nuclei separately harvested, deproteinated with acetonitrile, and metabolites separated by HPLC and quantitated as described above.

The target in the next data set is T1, human albumin (Homo sapiens, UniProt P02768).
T1 construct: purchased Sigma
T1 sequence (P02768 25-609): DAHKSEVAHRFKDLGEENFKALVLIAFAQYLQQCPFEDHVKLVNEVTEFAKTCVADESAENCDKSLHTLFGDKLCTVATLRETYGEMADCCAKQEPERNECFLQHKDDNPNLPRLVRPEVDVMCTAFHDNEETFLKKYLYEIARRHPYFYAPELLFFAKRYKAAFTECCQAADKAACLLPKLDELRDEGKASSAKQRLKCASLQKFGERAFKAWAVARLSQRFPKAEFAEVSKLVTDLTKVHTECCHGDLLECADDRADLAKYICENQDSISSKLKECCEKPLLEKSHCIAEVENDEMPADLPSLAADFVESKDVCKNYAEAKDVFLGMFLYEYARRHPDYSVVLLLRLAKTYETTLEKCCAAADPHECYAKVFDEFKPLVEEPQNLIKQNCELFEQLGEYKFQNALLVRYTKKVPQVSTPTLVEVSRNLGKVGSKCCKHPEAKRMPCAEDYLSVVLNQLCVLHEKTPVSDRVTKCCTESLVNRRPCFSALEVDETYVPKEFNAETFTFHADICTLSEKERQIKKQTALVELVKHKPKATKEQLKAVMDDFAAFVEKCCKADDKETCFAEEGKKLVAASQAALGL
Nature of the data set: Equilibrium dialysis binding to human albumin. The settings on record: pH 7.4, equilibrium dialysis, read-out: equilibrium dissociation constant (Kd). As to the method: (§1) To determine whether albumin is the tasquinimod binding protein in plasma, albumin was removed from human plasma using an albumin depletion kit (Thermo Scientific cat # 85160). The albumin depleted plasma was then tested for its protein binding as described above. The dissociation constant (kd) for tasquinimod binding was determined based upon equilibrium dialysis of a mixture of 4mg/ml of the species (i.e., human, bovine, and mouse) specific albumin obtained from Sigma with 2μM of ^14C-labeled tasquinimod in PBS pH 7.4 buffer using a 96-well equilibrium dialyzer™ (Harvard Apparatus, Holliston,MA).
On the technique in general: In equilibrium dialysis only unbound substance equilibrates across the membrane.

Data set [1] concerns CWR-22RH human prostate cancer. Nature of the data set: Tumor take of CWR-22RH xenografts in castrated nude mice. Type of data set: in vivo, mouse. Conditions: tasquinimod alone 10mg/kg/day via drinking water from inoculation. The method, then:
To confirm this conclusion, castrated male nude mice were xenografted with the castrate resistant CWR-22RH human prostate cancer tissue and the animals immediately randomized into groups (n=10) which were: 1) left untreated as controls; 2) given daily oral treatment with tasquinimod alone via the drinking water (10mg/kg/day); 3) given oral ketoconazole alone via oral gavage at a daily dose which inhibits cytochrome P450 3A4 (i.e., 25 mg/kg/day); or 4) given a combination of the two drugs. […] These combined in vitro/in vivo results document tasquinimod, not one of its metabolites, is the active drug.
The source, history, and characteristics of the human prostate cancer cell lines (i.e., LNCaP, LAPC4, and CWR-22Rv1 and the human umbilical vascular endothelial cells (HUVEC) used, as well as cell culture conditions for their in vitro maintenance and the in vivo protocol for their xenografting into immune-deficient nude male mice are as described previously. The source, history, and characteristics of the TRAMP-C2 mouse prostate cancer line, as well as cell culture conditions for their in vitro maintenance and the in vivo protocol for their growth in intact adult male syngeneic C57Bl/6J are as described previously. All lines were mycoplasma negative using the MycoSensor PCR Assay kit (Agilent Technologies) and genetically authenticated within the last 6 months using short tandem repeat profiling conducted by the Johns Hopkins Genetic Resource Core Facility. The source, history, and characteristics of the CWR-RH human prostate cancer xenograft are as described previously. In vitro growth curves were determined as described. Animal studies were conducted according to animal protocol MO09M434 approved by Johns Hopkins Animal Care and Use Committee. Daily drug dosing via oral gavage, the drinking water, or subcutaneous injection, as well as tumor volume measurements and determination of the blood vessel density within cancers, were as described previously. These experiments were repeated at 3 independent times for each xenograft.

A further data set concerns the target T2, mouse albumin (Mus musculus, UniProt P07724).
T2 construct: purchased Sigma
Put plainly: Equilibrium dialysis binding to mouse albumin. Conditions: pH 7.4, equilibrium dialysis, read-out: equilibrium dissociation constant (Kd). The method, then:
as §1

The test system of data set [2] is human umbilical vein endothelial cells (HUVECs). Put plainly: 3D in vitro endothelial sprouting and tube formation assay. Type of data set: cell-based. The text has this: A three-dimensional (3D) in vitro endothelial sprouting and tube formation assay was utilized to define the anti-angiogenic potency of tasquinimod vs. these metabolites. In this 3D assay, human umbilical endothelial cells (i.e., HUVECs) are initially grown on microcarrier beads and the cell coated beads embedded in fibrin gels with media conditioned by normal human lung fibroblasts. Under these 3D-conditions, endothelial cells “sprout” producing 3D neovessel tubes with patent lumen within one week, Figure 4A - left panel. When tasquinimod is added at the initiation to these 3D-cultures, sprouting of the endothelial cells is inhibited, Figure 4B-right panel, with the potency for such inhibition, expressed as an IC50 value (i.e., the concentration of drug which inhibits by 50% the endothelial sprouting) of 0.5 μM, Figure 4C. […] Using this 3D-HUVEC assay, the potency (i.e., expressed as IC50) of tasquinimod metabolites to inhibit endothelial sprouting was compared to tasquinimod. […] To further confirm that tasquinimod itself and not the carboxamide-N-demethylated metabolite is the active drug, the response to ketoconazole alone and in combination with tasquinimod was tested in the 3D-endothelial sprouting assay.
The 3-dimensional (3D) in vitro angiogenic sprouting and tube formation assay was used as described previously. This 3D-endothelial sprouting assay was conducted using a minimum of 5 replicate wells per drug dose per experiment, repeated 3 independent times using human umbilical vein endothelial cells (HUVECs; Lonza Walkersville, Inc.) with modification that 20 μL of 10X concentrated Dulbecco's Modified Eagle's Media/10%FCS media conditioned by confluent human primary lung fibroblasts (Lonza) diluted to 200 μL of growth factor supplemented EGM-2 media (Lonza) was used instead of fibroblast co-culture.

Data set [3] addresses human serum albumin (HSA) (Homo sapiens, UniProt P02768). Put plainly: Reversibility of albumin binding (dialysis against drug free HSA). The settings on record: after 4 hours of dialysis, pH 7.4. The method, then:
In additional studies, 200 μg (i.e., 3nmol) of human serum albumin (HSA) was incubated with 400 pmoles of ^14C-labeled tasquinimod at pH 7.4 so that 50% of the drug is protein bound. This solution was then placed in a dialysis chamber opposite an equal volume of a solution containing 8 mg (i.e., 120 nmoles) of drug free HSA at pH 7.4 separated by a membrane which is permeable to unbound free tasquinimod, but impermeable to albumin. The 8 mg of HSA in the initial drug free side was chosen because this amount of albumin can bind 98% of the drug when exposed to 400 pmoles of tasquinimod.

Usually Kd stands for the equilibrium constant for the complex coming apart.

Chain of human serum albumin (HSA) (P02768 25-609): as above
T2 sequence (P07724 25-608): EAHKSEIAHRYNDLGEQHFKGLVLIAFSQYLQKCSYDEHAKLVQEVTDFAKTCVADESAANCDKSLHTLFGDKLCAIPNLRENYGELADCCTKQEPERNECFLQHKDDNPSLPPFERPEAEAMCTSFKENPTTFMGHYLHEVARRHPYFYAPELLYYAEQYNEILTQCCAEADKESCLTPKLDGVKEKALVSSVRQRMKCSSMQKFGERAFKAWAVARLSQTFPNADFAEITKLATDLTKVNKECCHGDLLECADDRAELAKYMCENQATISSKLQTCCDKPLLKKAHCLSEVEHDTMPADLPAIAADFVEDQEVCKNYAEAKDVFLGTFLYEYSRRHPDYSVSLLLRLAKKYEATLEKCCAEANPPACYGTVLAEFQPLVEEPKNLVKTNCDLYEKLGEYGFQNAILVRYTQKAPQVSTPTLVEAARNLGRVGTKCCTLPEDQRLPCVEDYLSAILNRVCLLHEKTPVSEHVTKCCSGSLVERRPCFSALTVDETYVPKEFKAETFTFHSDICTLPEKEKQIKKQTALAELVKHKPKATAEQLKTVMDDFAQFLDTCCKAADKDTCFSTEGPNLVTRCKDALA

In the case of `COc1cccc2c1c(O)c(C(=O)N(C)c1ccc(C(F)(F)F)cc1)c(=O)n2C` [Tasquinimod], the drug metabolized with HUVEC cells was under 15%. The Kd on human albumin amounted to 24 ± 4 µM; on mouse albumin it was 16 ± 3 µM. Further, the “tumor take and subsequent malignant growth” value in data set [1] is reported as “prevents tumor take”. Further, the “sprouting of HUVEC cells in 3-D culture” value in data set [2] (1μM, 5 days co-treatment with conditioned media from fibroblasts) is on record as “Lack of sprouting”. The IC50 in data set [2] (Homo sapiens, HUVEC, 3D-HUVEC sprouting assay, read-out: IC50 (concentration of drug which inhibits by 50% the endothelial sprouting)) was about 0.5 µM. Moreover, the “initial protein bound tasquinimod released” value in data set [3] is listed as 65 ± 9%.
